Values quoted from earlier work, collected in patent US12377214B2 (priority 2016, dated 2025).

Test system: BIS index
Conditions: in vivo

**Q.** For CC(C)c1cccc(C(C)C)c1O [propofol], which “Cp50 (interaction model parameter, effect site concentration of propofol)” value is on record?
**A.** Its value is 4.47.
